Assay results from patent publication US11826402B2, “Combination therapy involving antibodies against claudin 18.2 for treatment of metastatic pancreatic adenocarcinoma” (Astellas Pharma Inc., priority 2013, dated 2023).
Values after ≈ are worked out from the molar mass of the structure shown.

Columns and labels:
[1] = system: established MiaPaCa-2-LVT xenograft tumors; experiment: Established MiaPaCa-2-LVT xenograft tumors, high dose gemcitabine; type: in vivo, mice; settings: established MiaPaCa-2-LVT tumors, gemcitabine 2×150 mg/kg per week, independent from IMAB362
Source text: 9 days after subcutaneous tumor inoculation, tumor bearing mice reorganised in homogenous treatment groups with 8 animals per group and treatment was initiated.

[2] = system: BxPC3-LVT; experiment: Inhibition of proliferation (XTT viability assay, 4 days); type: cell-based, human
Description: To analyze dose-response curves of each chemotherapeutic agent, a proliferation assay was performed.
Cells were seeded in 96 well plates and after 4-6 hours gemcitabine or oxaliplatin was added in following concentrations: 1000, 500, 250, 100 and 20 ng/ml. The proliferation assay was incubated for 4 days at 37° C. and 5% CO2. 50 μl XTT complete reagent (50 parts XTT+1 part coupl. reagent mixed) was added and incubated at 37° C. Measurement of absorbance (cells plus supernatant) was done with the Tecan Safire after 3 h and 4 h. Inhibition of proliferation was calculated compared to medium values set as 100%. EC50 values for gemcitabine and oxaliplatin were calculated in the GraphPad Prism program.

[3] = system: LVT pancreatic cancer cell lines ectopically expressing CLDN18.2; experiment: IF staining with IMAB362 under native conditions; type: binding, human; settings: 8 LVT pancreatic cancer cell lines
Source text: IF analysis of pancreatic cancer cell lines (FIGS. 16A, 16B, 16D and 16E), lentivirally transduced pancreas cell lines (FIGS. 16G-16L) and KATO-III gastric cancer control cells (FIGS. 16C and 16F) expressing CLDN18.2. […] DAPI was used to stain the nuclei. Exposure times are indicated in each panel. FIG. 16G: BxPC3-LVT; FIG. 16H: CAPAN1-LVT; FIG. 16I: DANG-LVT; FIG. 16J: MiaPaCa2-LVT; FIG. 16K: Patu8902-LVT; FIG. 16L: Suit2-LVT.

[4] = system: SW1990; experiment: IMAB362-mediated ADCC assay; type: cell-based, human; settings: at least 2 donors
[5] = system: Suit2-LVT metastases; experiment: Suit2-LVT metastasis model (lung, Q-PCR and IHC); type: in vivo, mice; settings: 200 μg IMAB362, day 42
Description: Animals were sacrificed on day 42 post graft. […] Human cells were immunohistochemically stained in tissue sections with anti-human MHC-class I antibodies. * p<0.05 (Kruskal-Wallis test). Error bars: mean±SD.
Metastasis treatments were performed with 10-12 Hsd:Athymic Nude-Foxn1^nu mice per treatment group. […] All mice were sacrificed at the same time point, as soon as the first symptoms of metastasis disease appeared (loss of weight, weakness, shortness of breath), or the first mouse died.
All their organs were macroscopically analyzed for metastasis. […] These organs were dissected into 4 equal pieces, two (lung: upper right and lower left lobe), which were stored for genomic DNA isolation. The other two pieces were formalin fixed and stored for IHC analysis (FIG. 2).
Preparation of genomic DNA and Q-PCR strategy: Genomic DNA was extracted from lung or liver tissue.
The Q-PCR strategy is based on the amplification of human DNA present in the metastases. The relative detection level of human DNA in the mouse lung sample correlates directly with the amount and/or size of the metastases.
The Q-PCR reaction was performed with primer pair #5861 5′-[…]-3′ (SEQ ID NO: 53) and #5862 5′-[…]-3′ (SEQ ID NO: 54) specifically amplifying the alpha-satellite DNA present in human chromosome 17, but not in mouse DNA. […] The curve was used to calculate (linear regression) the amount of human metastasis DNA present in mouse lung tissue. Q-PCR reactions were performed in 50 μl final volume comprised of 20 μl (200 ng) mouse lung DNA, 25 μl Sybr Green (Qiagen), 1.6 μl sense primer (10 μM) and 1.6 μl anti-sense primer and 1.8 μl H2O.
After 35 days the first mouse (isotype control group) died. Consequently, all mice were sacrificed on day 42 and lungs and livers were taken for IHC and Q-PCR analyses.
Q-PCR analysis of human DNA in the lungs of mice was repeated at least twice in triplicate. […] The surface of the positively stained cells in the lung sections was calculated using the ImageJ Program. […]

[6] = system: YAPC; experiment: IMAB362-mediated CDC assay (healthy human serum pool, luciferase); type: cell-based
Description: (§1) CDC was performed as follows.

[7] = biological target: Panc05.04; experiment: as above; type: cell-based
Description: as §1

[8] = system: BxPC3; experiment: as above; type: cell-based
Description: as §1

[9] = biological target: DANG; experiment: as above; type: cell-based
Description: as §1

[10] = biological target: CAPAN1; experiment: as above; type: cell-based
Description: as §1

[11] = biological target: Suit2; experiment: as above; type: cell-based
Description: as §1

[12] = system: NUGC-4; experiment: IMAB362-induced ADCC on gastric cancer cells, also with ZA/IL-2 cultivated PBMCs; type: cell-based, human
Description: Specific killing was determined in luciferase assays.

[13] = biological target: first extracellular domain (ECD1) of CLDN18.2 (Homo sapiens, UniProt P56856); experiment: Target binding of IMAB362 (background)

## Nc1ccn([C@@H]2O[C@H](CO)[C@@H](O)C2(F)F)c(=O)n1 [gemcitabine, 4-amino-1-(2-deoxy-2,2-difluoro-β-D-erythro-pentofuranosyl)pyrimidin-2(1H)-one]
[1]
  tumor growth: strongly inhibited in tumor growth
[2]
  sensitivity of cells to the agent: very sensitive
[2]; Homo sapiens, 96 h, 4 days exposure
  IC50: ~2 ng/mL (≈ 7.6 nM)

## IMAB362: chimeric IgG1 antibody directed against CLDN18.2, developed by Ganymed Pharmaceuticals AG
[3]
  membrane staining (IF, native staining protocol): clear membrane staining
[4]
  ADCC EC50: n.m.
  ADCC Max. lysis: n.m.
[5]; versus PBS
  surface of MHC-I stained cells in lung sections (IHC): significant inhibition (P<0.05)
[5]; versus PBS and isotype control
  percentage of human DNA in lungs (Q-PCR): significant decrease (P<0.05)
[5]; versus isotype control antibody
  surface of MHC-I stained cells in lung sections (IHC): not significant
[6]; YAPC, healthy human serum pool
  complement-dependent lysis: not lysed
[6]; YPAC
  CDC EC50: n.m.
  CDC Max. lysis: n.m.
[7]
  CDC EC50: n.m.
  CDC Max. lysis: n.m.
[7]; healthy human serum pool
  complement-dependent lysis: not lysed
[8]
  complement-dependent lysis: not lysed
[9]
  CDC EC50: n.m.
  CDC Max. lysis: n.m.
[9]; healthy human serum pool
  complement-dependent lysis: not lysed
[10]
  CDC EC50: n.m.
  CDC Max. lysis: n.m.
[10]; healthy human serum pool
  complement-dependent lysis: not lysed
[11]
  CDC EC50: n.m.
  CDC Max. lysis: n.m.
[11]; healthy human serum pool
  complement-dependent lysis: not lysed
[12]; PBMCs cultivated 14 days with ZA/IL-2
  ADCC activity with ZA/IL-2 cultivated PBMCs: Strong IMAB362-dependent ADCC activity
[12]; up to 200 μg/ml, 24 hours, human PBMC E:T 40:1
  maximum lysis rates (ADCC): 80-100%
[13]
  recognition of ECD1 of CLDN18.2: high affinity and specificity
